Measurements as given in patent US20200405697A1, “Antitumor Agent” (Taiho Pharmaceutical Co., Ltd, priority 2017, published 2020).

Columns and labels:
A2780 cells = test: Cell proliferation inhibitory effect on human cancer cell lines: A2780; format: cell-based; settings: 72 h, A2780, Ovarian Cancer, RPMI-1640 + 10% FBS, 2000 cell/well
Method: (§1) Human derived breast cancer cell line HCC 1806 cells (American Type Culture Collection, ATCC) were daily passaged at a cell density not exceeding 80% in ATCC recommended Roswell Park Memorial Institute medium (RPMI-1640) containing 10% fetal bovine serum (FBS). In order to start the test of cell proliferation inhibitory activity, HCC 1806 cells were suspended in the above medium, after seeing at 180 μL in each well of a 96-well flat bottom plate so that the number of cells per well was 2,000, the cells were cultured at 37° C. for 1 day in an incubator containing 5% carbon dioxide gas.
(§2) On the next day, the Example compound was dissolved in DMSO, and 20 μL of a drug additive solution diluted serially with distilled water to 10 times of the final concentration was added to each well of the culture plate of the cells, and the cells were cultured at 37° C. for 72 hours in an incubator containing 5% carbon dioxide gas. […] 100 μL of an extract solution (0.1 N NaH2PO4: 100% ethanol=1:1) was added to each well and mixed, and the mixture was measured at a wavelength of 540 nm using a plate reader (MTP-450 manufactured by Corona Electric Co., Ltd.). […]
(§3) According to the method of Test Example 2, the cell proliferation inhibitory effect on various cancer cell lines as described in Table 24 was evaluated. […]

MV-4-11 = test: Antitumor effect in human-derived blood cancer cell line (MV-4-11) subcutaneous transplantation model (in vivo); parameters: species or system nude mouse (BALB/cA Jcl-nu/nu); settings: oral, 100 mg/kg/day once per day for 14 days; RTV vs control group, Student-t test, p<0.05
Method: A human-derived blood cancer cell line MV-4-11 was transplanted subcutaneously into a nude mouse (BALB/cA Jcl-nu/nu, CLEA Japan, Inc.), and at the time when the tumor volume of the nude mouse on which the engrafted tumor reached 100 to 300 mm^3, four mice were assigned to each group by random stratification so that the average of the tumor volumes of each group was uniform (day 0), and the Example compound was orally administered daily at 100 mg/kg/day once per day for 14 days. Example Compound dosing solutions were prepared using 0.5% HPMC.
An electric balance for animals was used in body weight measurement. Rate of change in body weight on day n (BWCn) from body weight on day n (BWn) was calculated according to the following equation.
Rate of change in body weight BWCn (%)=(BWn−BW0)/BW0×100
Tumor volume (TV) was calculated according to the following equation by sandwiching and measuring the major axis and the minor axis with a digital caliper.
Tumor volume (mm^3)=Major axis (mm)×Minor axis (mm)×Minor axis (mm)/2
In order to compare the chronological transition of proliferation of tumor for the administration of each compound, relative tumor volume (RTV) setting the tumor volume at the time of grouping as 1 as the tumor proliferation rate was calculated according to the following formula, and the transition of the average value of RTV of each individual are shown in FIGS. 1 to 4.
RTV=(tumor volume at the day of tumor volume measurement)/(tumor volume at the time of the grouping)

NCI-H460 cells = test: Cell proliferation inhibitory effect on human cancer cell lines: NCI-H460; format: cell-based; settings: 72 h, NCI-H460, Lung Cancer, ATCC recommended RPMI-1640 + 10% FBS, 1000 cell/well
Method: as §1, §2, §3

ACHN cells = test: Cell proliferation inhibitory effect on human cancer cell lines: ACHN; format: cell-based; settings: 72 h, Kidney Cancer, EMEM + 10% FBS, 2000 cell/well
Method: as §1, §2, §3

[1] = target: T1, human RNR (histidine tagged human M1 and human M2 proteins) (Homo sapiens, UniProt P23921); test: Human RNR inhibition effect (dCDP formation from CDP); format: biochemical; settings: 10 μM CDP, 37° C. for 30 minutes, read-out: RNR inhibitory activity IC50
T1 construct: made in house; host or cells: Escherichia coli
T1 sequence (P23921 1-792): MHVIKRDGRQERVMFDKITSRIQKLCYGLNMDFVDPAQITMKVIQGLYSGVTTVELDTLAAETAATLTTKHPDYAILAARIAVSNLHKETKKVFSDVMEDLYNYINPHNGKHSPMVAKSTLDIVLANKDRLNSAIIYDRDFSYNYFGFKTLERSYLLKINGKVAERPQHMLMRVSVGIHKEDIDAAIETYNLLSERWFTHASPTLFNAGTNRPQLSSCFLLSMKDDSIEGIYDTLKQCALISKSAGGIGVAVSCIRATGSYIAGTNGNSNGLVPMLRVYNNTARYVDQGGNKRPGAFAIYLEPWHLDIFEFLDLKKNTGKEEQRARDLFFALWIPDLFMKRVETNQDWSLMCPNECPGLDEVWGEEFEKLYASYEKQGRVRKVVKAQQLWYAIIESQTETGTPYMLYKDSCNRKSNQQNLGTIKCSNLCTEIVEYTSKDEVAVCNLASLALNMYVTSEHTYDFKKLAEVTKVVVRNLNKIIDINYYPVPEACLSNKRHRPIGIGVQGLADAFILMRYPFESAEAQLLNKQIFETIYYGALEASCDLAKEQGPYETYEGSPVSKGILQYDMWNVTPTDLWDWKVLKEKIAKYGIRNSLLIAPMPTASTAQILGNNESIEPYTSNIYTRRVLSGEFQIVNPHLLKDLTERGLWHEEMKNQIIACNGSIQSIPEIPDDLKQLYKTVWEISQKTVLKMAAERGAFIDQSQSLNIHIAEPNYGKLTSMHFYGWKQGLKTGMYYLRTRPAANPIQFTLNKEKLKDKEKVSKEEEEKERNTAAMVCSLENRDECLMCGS
Method in brief: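 His-tagged human M1 (isoform 1) and N-terminal 59-aa-truncated M2 (isoform 2), E. coli-expressed, Ni-purified, preincubated 20 min with compound (1% DMSO). Reaction with 10 μM CDP, 2 mM ATP, 0.24 mM NADPH, 6 mM DTT, 4 mM Mg acetate, 100 mM KCl, 50 mM HEPES pH 7.2, 30 min at 37° C. dCDP formed quantified by reverse-phase HPLC after heat stop.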

[2] = Non-Patent Document 10; cited from earlier work
[3] = tested on: non-small cell lung cancer cell line; settings: combination with cytarabine or gemcitabine; Non-Patent Document 11; cited from earlier work
mouse leukemia models = settings: combination with etoposide or cisplatin; Non-Patent Document 12; cited from earlier work
GB-1 cells = test: Cell proliferation inhibitory effect on human cancer cell lines: GB-1; format: cell-based; settings: GB-1, Glioblastoma, DMEM + 10% FBS, 3000 cell/well
Method: as §1
(§4) On the next day, the Example compound was dissolved in DMSO, and 20 μL of a drug additive solution diluted serially with distilled water to 10 times of the final concentration was added to each well of the culture plate of the cells, and the cells were cultured at 37° C. for 72 hours in an incubator containing 5% carbon dioxide gas. After culturing for 72 hours, 20 μL of glutaraldehyde was added to each well and allowed to stand for 30 minutes, then the plate was washed 10 times with water and was dried. 100 μL of a stain solution (0.05% crystal violet in a 20% methanol solution) was added to each well and allowed to stand for 30 minutes, then the plate was washed 10 times with water and was dried. 100 μL of an extract solution (0.1 N NaH2PO4: 100% ethanol=1:1) was added to each well and mixed, and the mixture was measured at a wavelength of 540 nm using a plate reader (MTP-450 manufactured by Corona Electric Co., Ltd.).
(§5) The growth inhibition rate was calculated from the following formula, and the concentration (IC50 (μM)) of a compound inhibiting 50% was determined.
as §3

HCC 1806 cells = test: Cell proliferation inhibitory effect on human breast cancer cell line; format: cell-based; settings: HCC1806, 72 h, crystal violet, read-out: Cell growth suppression IC50
Method: as §1, §4, §5
Growth inhibition rate (%){(C-B)−(T-B)}(C-B)×100
T: Absorbance of well to which Example compound was added
C: Absorbance of wells to which no Example compound was added
B: Absorbance of wells to which no cell was added

RNR = target: T2, RNR (Homo sapiens, UniProt P31350); settings: Non-Patent Document 7; cited from earlier work
T2 sequence (P31350 1-389): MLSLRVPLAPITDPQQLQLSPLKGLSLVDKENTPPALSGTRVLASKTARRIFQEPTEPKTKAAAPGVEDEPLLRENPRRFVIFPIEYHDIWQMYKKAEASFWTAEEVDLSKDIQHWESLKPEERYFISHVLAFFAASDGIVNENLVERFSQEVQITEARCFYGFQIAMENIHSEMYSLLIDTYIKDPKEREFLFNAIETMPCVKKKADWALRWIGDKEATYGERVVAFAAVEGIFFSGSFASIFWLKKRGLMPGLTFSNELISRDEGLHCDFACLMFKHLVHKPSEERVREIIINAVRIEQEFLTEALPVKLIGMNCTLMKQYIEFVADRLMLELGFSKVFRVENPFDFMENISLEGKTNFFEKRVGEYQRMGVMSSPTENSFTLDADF

SMILES	IC50 [1] [nM]	IC50 (GB-1 cells) [nM]	antitumor effect (relative tumor volume, RTV) (MV-4-11)	also measured
NC(=S)NN=Cc1ncccc1N [Example 3-AP, 3-aminopyridine-2-carboxaldehyde thiosemicarbazone]				side effects in clinical cases [2]: hypoxia, dyspnea, methemoglobinemia; cell proliferation inhibitory effect in combination [3]: enhancement in cell proliferation inhibitory effect; life extending effect in combination (mouse leukemia models): enhancement in life extending effect
Cc1ccc(F)c([C@@H](C)[C@H](NS(=O)(=O)c2ccc(Cl)cc2C(N)=O)c2n[nH]c(=O)o2)c1C [Example 5]	140	1570	antitumor effect	
CCc1ccc(F)c([C@@H](C)[C@H](NS(=O)(=O)c2ccc(Cl)cc2C(N)=O)c2n[nH]c(=O)o2)c1C [Example 11, 5-chloro-2-(N-((1S,2R)-2-(3-ethyl-6-fluoro-2-methylphenyl)-1-(5-oxo-4,5-dihydro-1,3,4-oxadiazol-2-yl)propyl)sulfamoyl)benzamide]	180	5220	antitumor effect	
NC(=O)NO [HU, hydroxyurea]				RNR inhibitory activity (RNR): very weak

Continued, in another order:

IC50 [1] [nM]	IC50 (GB-1 cells) [nM]	SMILES	antitumor effect (relative tumor volume, RTV) (MV-4-11)	also measured
30		[2H]C([2H])([2H])C1(O)CCOc2c(S(=O)(=O)N[C@H](c3n[nH]c(=O)o3)[C@H](C)c3c(F)ccc(C)c3C)ccc(Cl)c21 (single isomer, unassigned) [Example 200A]	antitumor effect	IC50 (A2780 cells): 130 nM; IC50 (NCI-H460 cells): 130 nM; IC50 (ACHN cells): 130 nM
150		COc1c(S(=O)(=O)N[C@H](c2n[nH]c(=O)o2)[C@H](C)c2c(F)ccc(C)c2C)ccc(Cl)c1C(C)O (stereo partly drawn) [Example 204, 4-chloro-N-((1S,2R)-2-(6-fluoro-2,3-dimethylphenyl)-1-(5-oxo-4,5-dihydro-1,3,4-oxadiazol-2-yl)propyl)-3-(1-hydroxyethyl)-2-methoxybenzenesulfonamide]		IC50 (HCC 1806 cells): 150 nM
